Assay results: patent publication US20150105252A1, “SUBSTITUTED PYRAZOLES AS HERBICIDES” (E I DU PONT DE NEMOURS AND COMPANY, priority 2013, published 2015)

How the values were obtained:
barnyardgrass = assay: Test A postemergence; assay type: in vivo, Echinochloa crus-galli
How it was run: (§1)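 Ratings express plant response from 0 (no effect) to 100 (complete control), judged visually against untreated controls after approximately 10 days in the greenhouse. Preemergence applications were made as directed soil sprays onto seeded loam–sand mix, and postemergence applications onto 2–10 cm plants at one- to two-leaf stage.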

pigweed = assay: Test A preemergence; assay type: in vivo, Amaranthus retroflexus
How it was run: as §1

ragweed = assay: Test C preemergence; assay type: in vivo, Ambrosia elation; conditions: for Plant response rating (scale of 0 to 100), Ragweed: Preemergence, 250 g ai/ha
Source text: (§2) Seeds of plant species selected from blackgrass (Alopecurus myosuroides), ryegrass, Italian (Italian ryegrass, Lolium multiflorum), wheat (winter wheat, Triticum aestivum), galium (catchweed bedstraw, Galium aparine), corn (Zea mays), crabgrass, large (large crabgrass, Digitaria sanguinalis), foxtail, giant (giant foxtail, Setaria faberii), johnsongrass (Sorghum halepense), lambsquarters (Chenopodium album), morningglory (Ipomoea coccinea), nutsedge, yellow (yellow nutsedge, Cyperus esculentus), pigweed (redroot pigweed, Amaranthus retroflexus), ragweed (common ragweed, Ambrosia elation), soybean (Glycine max), barnyardgrass (Echinochloa crus-galli), oilseed rape (Brassica napus), waterhemp (common waterhemp, Amaranthus rudis), oat, wild (wild oat, Avena fatua), kochia (Kochia scoparia), Surinam grass (Brachiaria decumbens), foxtail, green (green foxtail, Setaria viridis), goosegrass (Eleusine indica), bromegrass, downy (downy bromegrass, Bromus tectorum), nightshade (eastern black nightshade, Solanum ptycanthum), cocklebur (common cocklebur, Xanthium strumarium), cupgrass, woolly (woolly cupgrass, Eriochloa villosa), bermudagrass (Cynodon dactylon), sunflower, (common oilseed sunflower, Helianthus annuus), Russian thistle (Salsola kali), and velvetleaf (Abutilon theophrasti) were planted into a blend of loam soil and sand and treated preemergence with test chemicals formulated in a non-phytotoxic solvent mixture which included a surfactant.
(§3) At the same time, plants selected from these crop and weed species and also chickweed (common chickweed, Stellaria media), canarygrass (littleseed canarygrass, Phalaris minor), and deadnettle (henbit deadnettle, Lamium amplexicaule), were planted in pots containing Redi-Earth® planting medium (Scotts Company, 14111 Scottslawn Road, Marysville, Ohio 43041) comprising spaghnum peat moss, vermiculite, wetting agent and starter nutrients and treated with postemergence applications of test chemicals formulated in the same manner. Plants ranged in height from 2 to 18 cm (1- to 4-leaf stage) for postemergence treatments. Treated plants and controls were maintained in a greenhouse for 13 to 15 days, after which time all species were compared to controls and visually evaluated. Plant response ratings, summarized in Table C, are based on a scale of 0 to 100 where 0 is no effect and 100 is complete control. A dash (-) response means no test result.

ducksalad = assay: Test B flood; assay type: in vivo, Heteranthera limosa; conditions: 250 g ai/ha, visual rating on 0 to 100 scale (0 no effect, 100 complete control), 13 to 15 days
How it was run: (§4)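 Response scored visually, 0–100 relative to controls, 13–15 days after the compound was applied into paddy water; plants were at the 2-leaf stage in pots kept flooded to 3 cm.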

wheat [1] = assay: Test A preemergence; assay type: in vivo, Triticum aestivum; conditions: preemergence
How it was run: as §1

nutsedge, yellow = assay: Test C preemergence; assay type: in vivo, Cyperus esculentus; conditions: for Plant response rating (scale of 0 to 100), Nutsedge, Yellow: 250 g ai/ha
Source text: as §2, §3

rice = assay: Test B flood; assay type: in vivo, Oryza sativa; conditions: 250 g ai/ha, visual rating on 0 to 100 scale (0 no effect, 100 complete control), 13 to 15 days
How it was run: as §4

foxtail, giant [2] = assay: Test A preemergence; assay type: in vivo, Setaria faberii
How it was run: as §1

sedge, umbrella = assay: Test B flood; assay type: in vivo, Cyperus difformis; conditions: 250 g ai/ha, visual rating on 0 to 100 scale (0 no effect, 100 complete control), 13 to 15 days
How it was run: as §4

corn = assay: Test A preemergence; assay type: in vivo, Zea mays
How it was run: as §1

foxtail, giant [3] = assay: Test A postemergence; assay type: in vivo, Setaria faberii
How it was run: as §1

velvetleaf = assay: Test A preemergence; assay type: in vivo, Abutilon theophrasti
How it was run: as §1

wheat [4] = assay: Test A postemergence; assay type: in vivo, Triticum aestivum
How it was run: as §1

crabgrass, large = assay: Test A preemergence; assay type: in vivo, Digitaria sanguinalis
How it was run: as §1

morningglory = assay: Test C preemergence; assay type: in vivo, Ipomoea coccinea; conditions: for Plant response rating (scale of 0 to 100), Morningglory: 250 g ai/ha
Source text: as §2, §3

[5] = Postemergence, 125 g ai/ha, 0 to 100 scale, 0 no effect, 100 complete control
[6] = Postemergence, 500 g ai/ha, visual rating after approx. 10 days, 0 to 100 scale (0 no effect, 100 complete control)
[7] = Preemergence, 500 g ai/ha, 0 to 100 scale, 0 no effect, 100 complete control
[8] = preemergence, 125 g ai/ha, visual injury, 0 to 100 scale, approx. 10 days
[9] = preemergence, 31 g ai/ha, visual rating, scale 0 to 100 (0 no effect, 100 complete control), 13 to 15 days
[10] = preemergence, 62 g ai/ha, 13 to 15 days, scale 0 to 100, 0 = no effect, 100 = complete control
[11] = preemergence, 125 g ai/ha, scale 0 to 100, 0 is no effect, 100 is complete control
[12] = 125 g ai/ha, visual injury, 0 to 100 scale, approx. 10 days
[13] = 500 g ai/ha, visual injury after approx. 10 days, 0 to 100 scale (0 no effect, 100 complete control)
[14] = postemergence, 125 g ai/ha, about 10 days, visual rating on 0 to 100 scale (0 no effect, 100 complete control)
[15] = preemergence, 500 g ai/ha, visual injury after approx. 10 days, 0 to 100 scale (0 no effect, 100 complete control)
[16] = Preemergence, 16 g ai/ha, scale 0 to 100
[17] = Postemergence, 500 g ai/ha, 0 to 100 scale (0 no effect, 100 complete control)
[18] = preemergence, 62 g ai/ha, scale 0 to 100 (0 no effect, 100 complete control), 13 to 15 days
[19] = preemergence, 125 g ai/ha, visual injury approx. 10 days after treatment

SMILES | Barnyardgrass plant response rating (barnyardgrass; [6]) | Pigweed plant response rating (pigweed; [8]) | Plant response rating, Ducksalad (ducksalad) | Wheat plant response rating (wheat [1]; [12]) | Wheat plant response rating (wheat [1]; [13]) | Plant response rating (scale of 0 to 100), Nutsedge, Yellow (nutsedge, yellow; Preemergence) | Nutsedge, Yellow plant response rating (nutsedge, yellow; [9]) | Plant response rating, Nutsedge, Yellow (nutsedge, yellow; [10]) | Nutsedge, Yellow plant response rating (nutsedge, yellow; [11]) | Plant response rating, Rice (rice) | Foxtail, Giant plant response rating (foxtail, giant [2]; [8]) | Plant response rating, Sedge, Umbrella (sedge, umbrella) | Corn plant response rating (corn; [8]) | Foxtail, Giant plant response rating (foxtail, giant [3]; [14]) | Velvetleaf plant response rating (velvetleaf; [8]) | Wheat plant response rating (wheat [4]; [14]) | Crabgrass, Large plant response rating (crabgrass, large; [8]) | Barnyardgrass plant response rating (barnyardgrass; [14]) | Pigweed plant response rating (pigweed; [15]) | Foxtail, Giant plant response rating (foxtail, giant [2]; [15]) | further results
CCc1cc(C(=O)NCC(F)(F)F)nn1Cc1ccnc(C(F)(F)F)c1 [Compound 78, 5-ethyl-N-(2,2,2-trifluoroethyl)-1-[[(2-trifluoromethyl)-4-pyridinyl]methyl]-1H-pyrazole-3-carboxamide] | 90 | 100 | 85 | 50 | 100 | 98 | 70 | 85 | 98 | 50 | 100 | 80 | 60 | 90 | 100 | 70 | 100 | – | – | – | Barnyardgrass plant response rating (barnyardgrass; [5]): 50; Pigweed plant response rating (pigweed; [7]): 100; Plant response rating (scale of 0 to 100), Ragweed (ragweed): 100; Ragweed plant response rating (ragweed; [9]): 80; Plant response rating, Ragweed (ragweed; [10]): 98; Ragweed plant response rating (ragweed; [11]): 98; Foxtail, Giant plant response rating (foxtail, giant [2]; [7]): 100; Corn plant response rating (corn; [7]): 70; Foxtail, Giant plant response rating (foxtail, giant [3]; [6]): 100; Velvetleaf plant response rating (velvetleaf; [7]): 100; Wheat plant response rating (wheat [4]; [6]): 80; Crabgrass, Large plant response rating (crabgrass, large; [7]): 100
CCc1cc(C(=O)NOC(C)C)nn1Cc1ccnc(C(F)(F)F)c1 [Compound 101] | 90 | 100 | 70 | 70 | 100 | – | 5 | 25 | 75 | 0 | 100 | 60 | 70 | 80 | 40 | 80 | 100 | 80 | 100 | 100 | Plant response rating, Nutsedge, Yellow (nutsedge, yellow; [16]): 5; Plant response rating, Morningglory (morningglory; [16]): 40; Morningglory plant response rating (morningglory; [9]): 85; Plant response rating, Morningglory (morningglory; [10]): 100; Morningglory plant response rating (morningglory; [11]): 100; Corn plant response rating (corn; [15]): 100; Foxtail, Giant plant response rating (foxtail, giant [3]; [6]): 90; Velvetleaf plant response rating (velvetleaf; [15]): 100; Wheat plant response rating (wheat [4]; [6]): 100; Crabgrass, Large plant response rating (crabgrass, large; [15]): 100
CCc1cc(C(=O)NC(C)C)nn1Cc1ccnc(C(F)(F)F)c1 [Compound 103] | 90 | 100 | 90 | 40 | 100 | 95 | 40 | 80 | 85 | 50 | 100 | 90 | 70 | 90 | 100 | 80 | 100 | 90 | 100 | 100 | Plant response rating (scale of 0 to 100), Morningglory (morningglory; Preemergence): 100; Morningglory plant response rating (morningglory; [9]): 100; Plant response rating, Morningglory (morningglory; [10]): 100; Morningglory plant response rating (morningglory; [11]): 100; Corn plant response rating (corn; [15]): 90; Foxtail, Giant plant response rating (foxtail, giant [3]; [6]): 90; Velvetleaf plant response rating (velvetleaf; [15]): 100; Wheat plant response rating (wheat [4]; [6]): 90; Crabgrass, Large plant response rating (crabgrass, large; [15]): 100
CCONC(=O)c1cc(CC)n(Cc2cc(C(F)(F)F)no2)n1 [Compound 125] | – | 100 | 60 | – | – | 55 | 0 | – | 15 | 10 | 80 | 50 | – | 30 | – | 0 | – | 30 | 100 | 100 | Barnyardgrass plant response rating (barnyardgrass; [17]): 90; Plant response rating (scale of 0 to 100), Ragweed (ragweed): 75; Ragweed plant response rating (ragweed; [9]): 5; Ragweed plant response rating (ragweed; [18]): 10; Ragweed plant response rating (ragweed; [11]): 55; Nutsedge, Yellow plant response rating (nutsedge, yellow; [18]): 5; Plant response rating (scale of 0 to 100), Morningglory (morningglory; Preemergence): 95; Morningglory plant response rating (morningglory; [9]): 45; Morningglory plant response rating (morningglory; [18]): 50; Morningglory plant response rating (morningglory; [11]): 75; Foxtail, Giant plant response rating (foxtail, giant [3]; [17]): 90; Wheat plant response rating (wheat [4]; [17]): 60
CCCc1cc(C(=O)NCC(F)(F)F)nn1Cc1cc(C(F)(F)F)nn1C [Compound 138] | – | 100 | 80 | 80 | 90 | – | – | – | – | 50 | 100 | 90 | 10 | 100 | 100 | 80 | 100 | 100 | 100 | 100 | Barnyardgrass plant response rating (barnyardgrass; [17]): 100; Corn plant response rating (corn; [15]): 90; Foxtail, Giant plant response rating (foxtail, giant [3]; [17]): 100; Velvetleaf plant response rating (velvetleaf; [15]): 100; Wheat plant response rating (wheat [4]; [17]): 90; Crabgrass, Large plant response rating (crabgrass, large; [15]): 100
CCc1cc(C(=O)NCC(F)(F)F)nn1Cc1cc(OC(F)F)nn1C [Compound 206] | – | – | 0 | – | – | – | – | – | – | 0 | – | 0 | – | 0 | – | – | – | 0 | – | 100 | Barnyardgrass plant response rating (barnyardgrass; [17]): 60; Pigweed plant response rating (0 to 100 scale) (pigweed; [19]): 90; Foxtail, Giant plant response rating (0 to 100 scale) (foxtail, giant [2]; [19]): 0; Foxtail, Giant plant response rating (foxtail, giant [3]; [17]): 80; Wheat plant response rating (wheat [4]; [5]): 10; Wheat plant response rating (wheat [4]; [17]): 20
